Test results reported in patent US6525059B1, “Substituted pyrazoles as p38 kinase inhibitors” (G. D. Searle & Company, priority 1998, dated 2003).
Where a name gives a salt, the structure may show the parent alone. Read-outs that look alike come from different tables or passages of the source.

Legend:
[1] = tested on: TNF-α; assay: Rat assay: LPS-challenged rats, serum TNF-α by ELISA; format: in vivo; conditions: for ratLPS/% Inh @20.0 (mg/kg): 20.0 mg/kg oral gavage; for inhibition in vivo at 1 mg/kg / inhibition in vivo at 5 mg/kg: Rattus norvegicus, po; for inhibition in vivo at 1 mg/kg: 1.0 mg/kg oral gavage, read-out: ratLPS/% Inh @1.0 (mg/kg)
[2] = tested on: human TNF; assay: TNF inhibition: human whole blood assay; format: cell-based; conditions: Homo sapiens
Experimental: Human peripheral blood is obtained in heparinized tubes. A 190 μL aliquot of blood is placed in each well of a 96 well u-bottom plate. […] After one hour of incubation at 37° C., […] of lipopolysaccharide (Salmonella typhosa, Sigma) in phosphate buffered saline is added resulting in a final concentration of […]. After four to five hours of incubation at 37° C., the supernatants are harvested and assayed at 1:10 or 1:20 dilutions for human TNF using ELISA.

[3] = biological target: T1, human p38 kinase alpha (Homo sapiens, UniProt Q16539); assay: p38 kinase in vitro assay, phosphorylation of biotinylated PHAS-I with gamma 32P-ATP; format: biochemical
T1 construct: The coding region of the human p38a cDNA was obtained by PCR-amplification from RNA isolated from the human monocyte cell line THP.1; GST (N); made in house; host or cells: E. coli DH10B
T1 sequence (Q16539 whole entry): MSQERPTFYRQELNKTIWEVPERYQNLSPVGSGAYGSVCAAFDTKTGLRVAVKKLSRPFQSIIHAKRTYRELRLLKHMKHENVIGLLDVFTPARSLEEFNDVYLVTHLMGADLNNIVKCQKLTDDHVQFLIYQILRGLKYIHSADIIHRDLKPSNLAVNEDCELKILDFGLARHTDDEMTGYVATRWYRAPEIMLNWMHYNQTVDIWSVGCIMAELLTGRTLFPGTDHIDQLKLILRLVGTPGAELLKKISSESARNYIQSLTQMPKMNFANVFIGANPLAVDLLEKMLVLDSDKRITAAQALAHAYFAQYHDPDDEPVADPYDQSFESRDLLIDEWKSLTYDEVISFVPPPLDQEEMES
In short: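 Radiometric filter-capture read-out: streptavidin plates trap biotin-PHAS-I labelled by activated (MKK6) human p38α from γ-32P-ATP. Buffer 25 mM HEPES pH 7.5, 10 mM magnesium acetate, 50 μM cold ATP; reactions 1 h or overnight at 30 °C; inhibitors 10-fold dilutions 100 to 0.001 μM, triplicates, 1% DMSO.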

[4] = 5.0 mg/kg oral gavage, 4 hours before LPS challenge, read-out: ratLPS/% Inh @5.0 (mg/kg)
[5] = TNF production, LPS-stimulated human whole blood, read-out: HWB IC50
[6] = 5 mpk oral gavage, 4 h before LPS challenge, read-out: Rat LPS Model % Inhibition @ dose @ predose time
[7] = TNF production, LPS-stimulated human whole blood, read-out: Human Whole Blood IC50
[8] = read-out: P38 alpha kinase IC50

CC(C)(O)C(=O)N1CCC(c2[nH]nc(-c3ccc(Cl)cc3)c2-c2ccncn2)CC1 [Example D-4, hydrochloride]
ratLPS/% Inh @20.0 (mg/kg) ([1]; 4 hours before LPS challenge): 99.0%
inhibition in vivo at 1 mg/kg ([1]; 4 hours before LPS challenge): 42.3%
inhibition in vivo at 5 mg/kg [1, 4]: 83%
IC50 [2, 5]: 1.55 µM
IC50 ([3]; read-out: p38 alpha IC50): 0.91 µM

COCC(=O)N1CCC(c2[nH]nc(-c3ccc(Cl)cc3)c2-c2ccncn2)CC1 [Example D-3, N-(2-Methoxyacetyl)-5-(4-piperidyl)-4-(4-pyrimidyl)-3-(4-chlorophenyl)pyrazole (fumarate salt)]
ratLPS/% Inh @20.0 (mg/kg) ([1]; 4 hours before LPS challenge): 91.0%
inhibition in vivo at 1 mg/kg ([1]; 4 hours before LPS challenge): 69%
inhibition in vivo at 5 mg/kg [1, 4]: 88%
IC50 [2, 5]: 0.46 µM
IC50 ([3]; read-out: p38 alpha IC50): 0.095 µM

CC(=N)N1CCC(c2[nH]nc(-c3ccc(F)cc3)c2-c2ccncc2)CC1 [Example C-107]
inhibition in vivo at 5 mg/kg ([1]; read-out: Rat LPS Model % Inhibition @ dose @ predose time): 11%
IC50 ([2]; read-out: Human Whole Blood IC50, μM): 0.38 µM
IC50 ([3]; P38 alpha kinase IC50, μM): 0.014 µM

CC(C)N[C@H]1CC[C@@H](c2[nH]nc(-c3ccc(F)cc3)c2-c2ccncc2)CC1 [Example C-100, 5-cis-[4-N-(2-PROPYL)AMINOCYCLOHEXYL]-4-(4-PYRIDYL)-3-(4-FLUOROPHENYL)PYRAZOLE]
inhibition in vivo at 5 mg/kg [1, 6]: 44%
IC50 [2, 7]: 0.27 µM
IC50 [3, 8]: 0.027 µM

CN1CCCC(c2[nH]nc(-c3ccc(F)cc3)c2-c2ccncc2)C1 (centres unmarked) [Example C-91]
inhibition in vivo at 5 mg/kg [1, 6]: 63%
IC50 [2, 7]: 2.31 µM
IC50 [3, 8]: 0.054 µM

COCC(=O)N1CCC(c2[nH]nc(-c3ccc(F)cc3)c2-c2ccncc2)CC1 [Example C-112]
inhibition in vivo at 5 mg/kg [1, 6]: 89%
IC50 [2, 7]: 6.36 µM
IC50 [3, 8]: 0.54 µM

CS(=O)(=O)N1CCC(c2[nH]nc(-c3ccc(F)cc3)c2-c2ccncc2)CC1 [Example C-111]
inhibition in vivo at 5 mg/kg [1, 6]: 39%
IC50 [2, 7]: 6.05 µM
IC50 [3, 8]: 0.21 µM

N[C@H]1CC[C@@H](c2[nH]nc(-c3ccc(Cl)cc3)c2-c2ccncc2)CC1 [Example C-92, 5-cis-(4-AMINOCYCLOHEXYL)-4-(4-PYRIDYL)-3-(4-CHLOROPHENYL)PYRAZOLE]
inhibition in vivo at 5 mg/kg [1, 6]: 66%
IC50 [2, 7]: 0.28 µM
IC50 [3, 8]: 0.024 µM

N[C@H]1CC[C@@H](c2[nH]nc(-c3ccc(F)cc3)c2-c2ccncc2)CC1 [Example C-98, 5-cis-(4-AMINOCYCLOHEXYL-4-(4-PYRIDYL)-3-(4-FLUOROPHENYL)PYRAZOLE]
inhibition in vivo at 5 mg/kg [1, 6]: 78%
IC50 [2, 7]: 0.64 µM
IC50 [3, 8]: 0.016 µM

C[C@@H](O)C(=O)N1CCC(c2[nH]nc(-c3ccc(Cl)cc3)c2-c2ccncn2)CC1 [Example D-6, hydrochloride]
ratLPS/% Inh @20.0 (mg/kg) ([1]; 4 hours before LPS challenge): 100%
inhibition in vivo at 1 mg/kg ([1]; 4 hours before LPS challenge): 82%
inhibition in vivo at 5 mg/kg [1, 4]: 96%
IC50 [2, 5]: 1.33 µM
IC50 ([3]; read-out: p38 alpha IC50): 0.083 µM

CN1CCC[C@@H]1c1[nH]nc(-c2ccc(F)cc2)c1-c1ccncc1 [Example C-126, (R)-5-(N-METHYL-2-PYROLIDINYL)-4-(4-PYRIDYL)-3-(4-FLUOROPHENYL)PYRAZOLE]
inhibition in vivo at 5 mg/kg [1, 6]: 6%
IC50 [2, 7]: > 25 µM
IC50 [3, 8]: 0.71 µM

Nc1ccc(Cc2[nH]nc(-c3ccc(Cl)cc3)c2-c2ccncc2)cc1 [Example C-116, 5-(4-AMINOBENZYL)-4-(4-PYRIDYL)-3-(4-CHLOROPHENYL)PYRAZOLE]
inhibition in vivo at 5 mg/kg [1, 6]: 53%
IC50 [2, 7]: 0.5 µM
IC50 [3, 8]: 0.429 µM

CN1CCC(c2[nH]nc(-c3cccc(Cl)c3)c2-c2ccncc2)CC1 [Example C-89]
inhibition in vivo at 5 mg/kg [1, 6]: 27%
IC50 [2, 7]: 0.12 µM
IC50 [3, 8]: 0.039 µM

CC(C)(O)CCCc1[nH]nc(-c2ccc(F)cc2)c1-c1ccncc1 [Example C-133]
inhibition in vivo at 5 mg/kg [1, 6]: 55%
IC50 [2, 7]: 4.54 µM
IC50 [3, 8]: 0.16 µM

O=C(CO)N1CCC(c2[nH]nc(-c3ccc(F)cc3)c2-c2ccncn2)CC1 [Example D-8]
inhibition in vivo at 1 mg/kg ([1]; 4 hours before LPS challenge): 65%
inhibition in vivo at 5 mg/kg [1, 4]: 85%
IC50 [2, 5]: 1.3 µM
IC50 ([3]; read-out: p38 alpha IC50): 0.18 µM

CN(C)[C@H]1CC[C@@H](c2[nH]nc(-c3ccc(Cl)cc3)c2-c2ccncc2)CC1 [Example C-93, 5-cis-(4-N,N-DIMETHYLAMINOCYCLOHEXYL)-4-(4-PYRIDYL)-3-(4-CHLOROPHENYL)PYRAZOLE]
inhibition in vivo at 5 mg/kg [1, 6]: 50%
IC50 [2, 7]: 0.38 µM
IC50 [3, 8]: 0.009 µM

C[C@H](O)C(=O)N1CCC(c2[nH]nc(-c3ccc(Cl)cc3)c2-c2ccncn2)CC1 [Example D-5, hydrochloride]
ratLPS/% Inh @20.0 (mg/kg) ([1]; 4 hours before LPS challenge): 83.0%
inhibition in vivo at 1 mg/kg ([1]; 4 hours before LPS challenge): 65%
inhibition in vivo at 5 mg/kg [1, 4]: 78.5%
IC50 [2, 5]: 4.09 µM
IC50 ([3]; read-out: p38 alpha IC50): 0.14 µM

COCC(=O)N1CCC(c2[nH]nc(-c3ccc(Cl)cc3)c2-c2ccncc2)CC1 [Example C-77]
inhibition in vivo at 5 mg/kg [1, 6]: 92%
IC50 [2, 7]: 8.2 µM
IC50 [3, 8]: 0.071 µM

CS(=O)(=O)N1CCC(c2[nH]nc(-c3ccc(Cl)cc3)c2-c2ccncc2)CC1 [Example C-78]
inhibition in vivo at 5 mg/kg [1, 6]: 87%
IC50 [2, 7]: 10.5 µM
IC50 [3, 8]: 0.068 µM

O=C(CO)N1CCC(c2[nH]nc(-c3ccc(C(F)(F)F)cc3)c2-c2ccncn2)CC1 [Example D-9]
inhibition in vivo at 1 mg/kg ([1]; 4 hours before LPS challenge): 5%
inhibition in vivo at 5 mg/kg [1, 4]: 86%
IC50 [2, 5]: 15.8 µM
IC50 ([3]; read-out: p38 alpha IC50): 1.63 µM

CC(=O)N1CCC(c2[nH]nc(-c3ccc(Cl)cc3)c2-c2ccncc2)CC1 [Example C-76]
inhibition in vivo at 5 mg/kg [1, 6]: 66%
IC50 [2, 7]: 3.24 µM
IC50 [3, 8]: 0.07 µM

FC(F)(F)c1ccc(-c2n[nH]c(C3CCNCC3)c2-c2ccncc2)cc1 [Example C-83]
inhibition in vivo at 5 mg/kg [1, 6]: 25%
IC50 [2, 7]: 1.23 µM
IC50 [3, 8]: 0.24 µM

CN(C)[C@H]1CC[C@@H](c2[nH]nc(-c3ccc(F)cc3)c2-c2ccncc2)CC1 [Example C-99, 5-(cis-4-N,N-DIMETHYLAMINOCYCLOHEXYL)-4-(4-PYRIDYL)-3-(4-FLUOROPHENYL)PYRAZOLE]
inhibition in vivo at 5 mg/kg [1, 6]: 36%
IC50 [2, 7]: 0.38 µM
IC50 [3, 8]: 0.062 µM

COCCN1CCC(c2[nH]nc(-c3ccc(Cl)cc3)c2-c2ccncc2)CC1 [Example C-79]
inhibition in vivo at 5 mg/kg [1, 6]: 83%
IC50 [2, 7]: 0.52 µM
IC50 [3, 8]: 0.045 µM

COCC(=O)N1CCCC(c2[nH]nc(-c3ccc(F)cc3)c2-c2ccncc2)C1 (centres unmarked) [Example C-139]
inhibition in vivo at 5 mg/kg [1, 6]: 46%
IC50 [2, 7]: 3.66 µM
IC50 [3, 8]: 0.2 µM

O=C(CO)N1CCC(c2[nH]nc(-c3cccc(C(F)(F)F)c3)c2-c2ccncn2)CC1 [Example D-13]
inhibition in vivo at 1 mg/kg ([1]; 4 hours before LPS challenge): 53%
inhibition in vivo at 5 mg/kg [1, 4]: 87%
IC50 [2, 5]: 8.36 µM
IC50 ([3]; read-out: p38 alpha IC50): 0.33 µM

Clc1cccc(-c2n[nH]c(C3CCNCC3)c2-c2ccncc2)c1 [Example C-88]
inhibition in vivo at 5 mg/kg [1, 6]: 59%
IC50 [2, 7]: 0.3 µM
IC50 [3, 8]: 0.012 µM

CC(C)N[C@H]1CC[C@@H](c2[nH]nc(-c3ccc(Cl)cc3)c2-c2ccncc2)CC1 [Example C-94, 5-[cis-4-N-(2-PROPYL)AMINOCYCLOHEXYL]-4-(4-PYRIDYL)-3-(4-CHLOROPHENYL)PYRAZOLE]
inhibition in vivo at 5 mg/kg [1, 6]: 73%
IC50 [2, 7]: 0.27 µM
IC50 [3, 8]: 0.02 µM

O=C(CO)N1CCC(c2[nH]nc(-c3ccc(OC(F)(F)F)cc3)c2-c2ccncn2)CC1 [Example D-10, N-(2-Hydroxyacetyl)-5-(4-piperidyl)-4-(4-pyrimidyl)-3-(4-trifluoromethoxyphenyl)pyrazole]
inhibition in vivo at 5 mg/kg [1, 4]: 80%
IC50 [2, 5]: 14.8 µM
IC50 ([3]; read-out: p38 alpha IC50): 3.95 µM
